# Legend:
# [1] = tested on: C2C12 mouse myoblast cell line; test: Scratch wound assay, C2C12 cells; assay type: cell-based; settings: for IC50: Mus musculus, C2C12, inflexion point, from AUC of % wound confluence, read-out: Scratch Assay C2C12 Cells IP; for Scratch Assay C2C12 Cells max inhibition in %: value in parentheses
# Method: Cell Cultures: C2C12 mouse myoblast cell line (ATCC, VA, USA) was maintained in culture in DMEM media supplemented with 10% fetal bovine serum, 1 mM sodium pyruvate, 1.5 g/L sodium bicarbonate, and 100 IU of penicillin, […] of streptomycin. The cells were then differentiated into myotubes with DMEM supplemented with 2% horse serum for 3 days in 24 well ImageLock™ plate (Essen Instruments, Mich., USA).
# Scratch wound assays are commonly used to assess the effects of drugs and drug candidates on the cellular proliferation and/or migration associated with wound closing. The IncuCyte™ system (Essen Instruments, Mich., USA), an automated imaging platform, provides ongoing, real-time images and quantitative data generated throughout the wound-closing process. Cells were maintained in 24 well ImageLock™ (Essen Instruments, Mich., USA) at 37° C. and […], until a confluent monolayer was achieved. A single scratch wound was then created in each well using the Essen Woundmaker™ (Essen Instruments, Mich., USA). It induced a mechanical scratch of the cell monolayer using plastic pipette tips (10-20 μl pipette tips, Eppendorff). Dead cells and other debris produced by the scratch were immediately washed with regular growth media. Cells were then treated with pharmacological agents and were placed into the IncuCyte™ at 37° C. and […], for two to three days. During this time, the wound area within each well was repeatedly imaged at fixed time intervals (every three hours). The IncuCyte™ scratch wound software generates a “wound mask” for each well. An initial wound mask is created for the first image (at time 0) that clearly delineates the border of the wound. A revised mask is generated for each subsequent image to track wound closure. Wound closure can be automatically monitored using the wound confluence (% confluence). Wound confluence can be graphed over time to evaluate the characteristics of wound closing in the presence of pharmacological agents.
# (§1) The calculation of the area under the curve (AUC) of the % confluence function of the time gave a quantitative measurement of compounds efficacy on the scratch wound closing. Compounds were titrated in quadruplicate at 5 points concentration starting at 20 nM with a two-fold increment. The percentage of inhibition was calculated from the AUCs at each dose in comparison with the AUCs of the control wells (1% DMSO). Concentration-response curves were represented and the concentrations at the inflexion point (IP) were calculated. The maximum effect was given by the maximum percent inhibition.
# [2] = tested on: Primary Rat cortical astrocytes; test: Proliferation assay (cell confluence), astrocytes; assay type: cell-based; settings: at 5 μM
# Method: C2C12 were plated at 15,000 cells per well and then differentiated into myotubes with DMEM supplemented with 2% horse serum for 3 days in 24 well ImageLock™ plate (Essen Instruments, Mich., USA). Primary Rat cortical astrocytes were plated at 3.105 cells/ml onto 24 well ImageLock™ plate.
# Cells were placed into the IncuCyte™ at 37° C. and 95% CO2/5% O2, for two to three days. During this time, the cells within each well were repeatedly imaged at fixed time intervals (every three hours). The IncuCyte™ system automatically monitored the proliferation using the percentage of confluence. Percent of confluence can be graphed over time to evaluate the characteristics of proliferation in the presence of pharmacological agents.
# […] The percentage of reduction of cell confluence was calculated from the AUCs in comparison with the AUCs of the control wells (1% DMSO).
# [3] = tested on: Primary Rat cortical astrocytes; test: Toxicity (percent of cell death), astrocytes; assay type: cell-based; settings: 20 μM
# Method: EphA4 kinase inhibition is assessed by both an enzymatic assay measuring the phosphorylation of a purified recombinant EphA4 kinase and a cell-based assay using the activation of pGas-Luciferase system in EphA4-transfected CHO-K1 cells. The functional effects of EphA4 RTK inhibitors on cell motility and proliferation is evaluated by the scratch wound assay. The effect of EphA4 RTK inhibitors is also directly measured on the cell confluence. The counterscreen assays (cell counterscreen, Src, Jak2 and P38α kinase) identified other potential inhibitory activities of compounds unrelated to EphA4 kinase. The toxicity is measured by the percent of cell death in the different cell assays. Values represent IC50 and IP in μM calculated from the dose-response curves. Values in parentheses give the maximum percent inhibition.
# [4] = biological target: T1, P38alpha kinase (Homo sapiens, UniProt Q16539); test: P38 alpha kinase counterscreen assay (Caliper); assay type: biochemical
# T1 construct: purchased Dundee Library
# Method: A counterscreen assay was performed to measure p38alpha kinase activity using the Caliper System (LifeSciences, USA). This system is based on the microfluidic technology. P38 alpha kinase activity was measured by the shift in mobility of the non-phosphorylated form when separated by electrophoresis and detected via LED (Light Emitting Diode) induced fluorescence. This assay was automated following the manufacturer's protocol. P38alpha kinase and its substrate GST-MK2 were bought from Dundee Library.
# Compounds were titrated, concentration-response curves were represented and the concentrations for 50% inhibition (IC50) were calculated.
# [5] = tested on: Primary Rat cortical astrocytes; test: Scratch wound assay, astrocytes; assay type: cell-based
# Method: Primary Rat cortical astrocytes were purchased from Lonza (Walkersvelle Inc., MA, USA). Cells were plated in culture flasks at a density of 1.106-3.106 cells/ml, and maintained at 37° C. and […], in Astrocyte Growth Medium Bulletkit™ (Lonza Walkersville Inc., MA, USA). When astrocyte cultures reached confluence, cells were trypsinized and replated at 6.105 cells/ml onto 24 well ImageLock™ plate (Essen Instruments, Mich., USA).
# Scratch wound assays are commonly used to assess the effects of drugs and drug candidates on the cellular proliferation and/or migration associated with wound closing. The IncuCyte™ system (Essen Instruments, Mich., USA), an automated imaging platform, provides ongoing, real-time images and quantitative data generated throughout the wound-closing process. […] Wound closure can be automatically monitored using the wound confluence (% confluence). […]
# as §1, with “Compounds were titrated in quadruplicate at 5 points concentration starting at 20 nM with a two-fold increment.” left out, “The maximum effect was given by the maximum percent inhibition.” left out
# T1 sequence (Q16539 whole entry): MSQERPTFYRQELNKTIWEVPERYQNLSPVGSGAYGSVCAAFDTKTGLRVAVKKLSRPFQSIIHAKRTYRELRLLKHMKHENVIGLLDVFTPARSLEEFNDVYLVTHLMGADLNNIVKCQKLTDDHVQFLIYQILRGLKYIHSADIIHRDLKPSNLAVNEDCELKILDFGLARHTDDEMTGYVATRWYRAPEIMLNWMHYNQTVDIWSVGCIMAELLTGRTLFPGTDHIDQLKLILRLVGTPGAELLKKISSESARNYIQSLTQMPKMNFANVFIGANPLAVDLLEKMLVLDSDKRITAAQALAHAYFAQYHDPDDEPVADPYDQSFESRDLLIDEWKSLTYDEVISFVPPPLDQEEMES
Structure (SMILES),IC50 [1] [µM],Scratch Assay C2C12 Cells max inhibition in % [1] [%],% Reduction of Confluence Astrocytes [2] [% at 5 μM],Max Toxicity Astrocytes % of cell death [3] [% 20 μM],IC50 [4] [µM],"IC50 ([5]; Rattus norvegicus, Astrocyte, inflexion point, from AUC of % wound confluence, read-out: Scratch Assay Astrocytes IP) [µM]",Scratch Assay Astrocytes max inhibition in % ([5]; value in parentheses) [%]
Cc1ccc(NC(=O)c2cccc(C(F)(F)F)c2)cc1-c1ccc(-n2cccn2)cc1 [Example 120],3.1,43,,,,,
Cc1ccc(NC(=O)c2cccc(C(F)(F)F)c2)cc1-c1ccc(O)c(NC=O)c1 [Example 133],6,42,28.2,0,6.9,5,50

# From US20100197688A1, “EPHA4 RTK INHIBITORS FOR TREATMENT OF NEUROLOGICAL AND NEURODEGENERATIVE DISORDERS AND CANCER” (priority 2008, published 2010)
